# Assay results reported in US20240226227A9, “BONE DISEASE TREATMENT” (The University of Birmingham, priority 2019, published 2024).
# Legend:
# [1] = system: osteoclasts and chondroclasts in tibia of wild-type mice; test: TRAP staining of decalcified tibia sections, osteoclast and chondroclast counts; assay type: in vivo, mouse; conditions: daily injections for 14 days, vs PBS
# Protocol: WT mice were housed in the Biomedical Services Unit at the University of Birmingham. Mice were used between 6 and 16 weeks of age. • 1. Homeostasis—Six-week-old male wild-type mice were treated with or without daily intraperitoneal (i.p.) injections of PEPITEM (300 μg) for 2 weeks. Mice were culled at 2 weeks to examine the effect of PEPITEM on bone homeostasis in young resting bones. • 2. Ovariectomy (model of age-related osteoporosis)—Twelve-week-old female wild-type mice were subjected to ovariectomy (OVX). Two weeks post-surgery, mice were treated with or without daily i.p. injections of PEPITEM (300 μg) for 2 weeks. Mice were culled at 2 weeks to obtain baseline bone loss measurements, or at 4 weeks to examine the effect of PEPITEM on OVX-induced bone loss. • 3. […]
# For analysis of whole hind limb sections, Zen Blue software (ZEISS, Cambridge, UK) was used to break whole leg scans into regions of 20 μm by 20 μm, which were saved as images (JPEG) and opened on ImageJ™ (National institute of health (NIH); Maryland, USA). […] Osteoclasts were counted per region using ImageJ™ count maxima tool, where maxima were defined according to noise tolerance to neighboring squares and given as total number of osteoclasts per section. […]
# [2] = system: vertebra of wild-type mice; test: Bone homeostasis in young healthy mice, microCT of vertebra; assay type: in vivo, mouse; conditions: daily i.p. 300 μg for 14 days, vs PBS
# Protocol: (§1) All experiments were performed in accordance with UK Home Office regulations. For the animal studies, in each experiment wild-type (WT) animals were allocated at random to different experimental groups. Importantly, mice from the same litter were randomly distributed amongst the experimental groups, and where possible, they were equally distributed amongst experimental groups. Injections of peptide were carried out at the same time of day, with identical reagents when possible. The investigators were not blinded to allocation during experiments and outcome assessment. All samples analyzed were included in the study.
# (§2) WT mice were housed in the Biomedical Services Unit at the University of Birmingham. Mice were used between 6 and 16 weeks of age. • 1. Homeostasis—Six-week-old male wild-type mice were treated with or without daily intraperitoneal (i.p.) injections of PEPITEM (300 μg) for 2 weeks. Mice were culled at 2 weeks to examine the effect of PEPITEM on bone homeostasis in young resting bones. • 2. Ovariectomy (model of age-related osteoporosis)—Twelve-week-old female wild-type mice were subjected to ovariectomy (OVX). Two weeks post-surgery, mice were treated with or without daily i.p. injections of PEPITEM (300 μg) for 2 weeks. Mice were culled at 2 weeks to obtain baseline bone loss measurements, or at 4 weeks to examine the effect of PEPITEM on OVX-induced bone loss. • 3. Analysis of murine bone parameters—Histomorphometry analysis was performed on long bones (femur; tibia) and/or spine to determine the effects of PEPITEM on the structural architecture of the tissue, cellular distribution and bone volume, including TRAP and Toluidine blue staining for osteoclasts and osteoblasts respectively. For information on these staining methods, see Das, P. et al., PNAS, 2018, 115(43), E10137-E10146 and Waddington, R. J. and Sloan, A. J. eds. Tissue Engineering and Regeneration in Dentistry: Current Strategies. West Sussex: John Wiley & Sons. Femurs were subjected to a 3-point bending test using a Bose 5500 (Bose) to determine the stiffness of the bones and the force required to fracture the bone. For more information on the 3-point bending test method, see Huesa, C. et al., Bone, 2011, 48(5), 1066-1074.
# [3] = system: long bones of wild-type mice; test: 3-point bending test of long bones ex vivo after treatment of mice; assay type: in vivo, mouse; conditions: daily injections for 14 days, vs PBS
# Protocol: as §2
# [4] = system: primary human osteoblasts; test: Alkaline phosphatase activity (mineralization), primary human osteoblasts; assay type: cell-based; conditions: 10 ng/ml PEPITEM, vs untreated cells, paired t-test
# Protocol: Human osteoarthritis subchondral joint tissue was obtained at the time of total knee and hip joint replacement operations from the Royal Orthopaedic Hospital (Birmingham). To isolate primary osteoblasts, cartilage was removed from the femoral condyles and tibial plateaus and cut into 2 mm^2 pieces. Samples were kept in media and cleaned of fat. Media contains DMEM (Sigma™, D6546), FCS (10%), GPS (1%), Non-essential amino acid (1%; Sigma™, M7145), β-glycerophosphate (2 mM; Sigma™—G9422) and L-Ascorbic acid (50 μg/ml; Sigma™, A5960). Bone chips were placed in T75 flasks in 10 ml of media, replacing media every 2-3 days. Main outgrowth occurs between 10-14 days, after which chips were placed in new flasks. […]
# (§3) Osteoblasts were cultured in mineralization differentiation media in the presence or absence of PEPITEM (10 ng/ml) over a 21-day period, dependent on cell source. Mineralization was assessed by quantifying the amount of alizarin red (nM) or the level of alkaline phosphate activity (absorbance at 405 nm) per condition.
# To measure alkaline phosphatase activity, cells were washed in PBS before being lysed in 100 μl of RIPA buffer (Thermo Fisher™, R0278) for 15 minutes on ice. […] The plate was wrapped in foil and left to run for 45 minutes at 37° C. in an incubated shaker (SciQuip™; Shropshire, UK) before being quantified using a Synergy HT plate reader (BioTek™) with absorbance set at 405 nm.
# [5] = system: murine osteoblast cell line MC3T3; test: Alizarin red mineralization assay, MC3T3 osteoblast cell line; assay type: cell-based, mouse; conditions: MC3T3 cells, 10 ng/ml PEPITEM in differentiation media, up to 21 days, vs untreated cells
# Protocol: The spontaneously immortalised murine MC3T3-E1 cell line (ATCC, England, UK, CRL-2593) was brought up from liquid nitrogen and cultured in basal media made up of: αMEM media (Sigma-Aldrich™, St. Louis, MO, USA, M8042) supplemented with 2 mM L-Glutamine, 100 U/ml Penicillin and 100 μg/ml Streptomycin (all from Sigma-Aldrich™, G1146) and fetal bovine serum [(FBS) Biosera™, East Sussex, UK, FB1001]. […] Mineralisation was assessed using an Alizarin red staining quantification assay and ALP activity.
# as §3
# (§4) Alizarin red analysis was performed following the manufacturer's instructions (Caltag+Medsystems™, Buckingham, UK, SC8678). […] Alizarin red was quantified using ImageJ™ (NIH) by removing backing, converting to a binary image and measuring area fraction stained. […]
# [6] = system: primary murine osteoblast cells; test: Alizarin red mineralization assay, primary murine osteoblasts; assay type: cell-based, mouse; conditions: 10 ng/ml PEPITEM, vs untreated cells, paired t-test
# Protocol: Day 3-5 WT mouse pups were culled via decapitation and heads were washed briefly in 70% ethanol and kept hydrated in αMEM media supplemented with 2 mM L-Glutamine, 100 U/ml Penicillin and 100 μg/ml Streptomycin. Skin was removed from around calvaria using forceps, and the calvaria was dissected out and cleaned of any contaminating tissue. Calvaria were added to αMEM media supplemented with 1 mg/ml of collagenase d (Roche™, Basel, Switzerland, COLLD-RO). Tubes were then agitated at 37° C. for 10 minutes and the media discarded. αMEM media supplemented with 1 mg/ml of collagenase d was again added to calvaria and shaken at 37° C. for 30 minutes. […] Cells on ice were then spun down at 300 g for 4 minutes, resuspended in 1 ml of Basal media and counted using a haemocytometer. […]
# as §3, §4
# [7] = system: long bones of wild-type mice; test: Bone homeostasis in young healthy mice, microCT of long bones; assay type: in vivo, mouse; conditions: daily i.p. 300 μg for 14 days, vs PBS
# Protocol: as §1, §2
# [8] = system: ovariectomized wild-type mice; test: Ovariectomy model of age-related osteoporosis, microCT of long bones; assay type: in vivo, mouse; conditions: OVX mice
# Protocol: as §1, §2
# [9] = long bones, daily i.p. 300 μg for 2 weeks from 2 weeks post surgery, vs untreated
substance,measurement,setting,value
PEPITEM (SVTEQGAELSNEER; listed as Homo sapiens),number of chondroclasts per μm,[1],reduced
same,number of osteoclasts per mm^2 within the tibia,[1],significantly reduces
same,bone volume to trabecular bone volume ratio (BV/TV),[2],significantly increased
same,trabecular number,[2],significantly increased
same,trabecular separation,[2],decreased
same,trabecular thickness,[2],significantly increased
same,bending force,[3],significantly increased
same,fracture force,[3],significantly increased
same,stiffness of the bone,[3],significantly increased
same,osteoblast mineralization (alkaline phosphatase activity),[4],significantly increased
same,production of bone mineral (Alizarin Red staining),[5],stimulates the production of bone mineral
same,osteoblast mineralization (Alizarin Red staining),[6],significantly increased
same,bone volume to trabecular bone volume ratio (BV/TV),[7],significantly increased
same,trabecular number,[7],significantly increased
same,trabecular separation,[7],decreased
same,trabecular thickness,[7],significantly increased
same,additional bone loss after ovariectomy,"[8]; 4 weeks post surgery, compared to 2-week untreated (baseline) mice",prevented additional bone loss
same,bone volume to trabecular bone volume ratio (BV/TV),[8]; [9],significantly increased
same,trabecular number,[8]; [9],significantly increased
same,trabecular separation,[8]; [9],decreased
same,trabecular thickness,[8]; [9],significantly increased
